Source: patent US6979686B1, “Substituted pyrazoles as p38 kinase inhibitors” (Pharmacia Corporation, priority 2001, dated 2005)
Read-outs that look alike come from different tables or passages of the source. One block for each compound: values may come before it.

How the values were obtained:
[1] = system: TNF-α, U937 human histiocytic lymphoma cell line; assay: LPS stimulation of TNF production by U937 cells; assay type: cell-based; conditions: Table 6; U937 cell assay; read-out: U937 IC50
How it was run: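 U937 cells differentiated 24 h with 20 ng/ml PMA, rested 24-48 h, used at 2 million cells/ml. Compounds in 0.1% DMSO final; LPS (E. coli, 100 ng/ml final) stimulation for 4 h at 37° C. Released TNF-α measured by ELISA; IC50 (μM).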

[2] = system: TNF alpha, BALB/c mice injected with LPS; assay: Mouse model of LPS-induced TNF alpha production; assay type: in vivo; conditions: for mLPS 8 h percent inhibition: head '8 h'
Protocol: Mouse Model of LPS-induced TNF Alpha Production:
TNF alpha was induced in 10-12 week old BALB/c female mice by tail vein injection with 100 ng lipopolysaccharide (from S. Typhosa) in 0.2 ml saline. One hour later mice were bled from the retroorbital sinus and TNF concentrations in serum from clotted blood were quantified by ELISA.
Efficacy was determined at each time point as percent inhibition of serum TNF levels relative to LPS injected mice that received vehicle only.
In vivo assessment of the ability of the compounds to inhibit LPS-stimulated TNP release in the mouse is shown in the column identified as: • “Mouse LPS Model, % TNF inhib @ dose @ predose time” wherein in the dose is milligram per kilogram (mpk) administered by oral gavage and the predose time indicates the number of hours before LPS challenge when the compound is administered.

human p38 kinase alpha = biological target: T1, human p38 kinase alpha (Homo sapiens, UniProt Q16539); assay: p38 kinase in vitro assay, phosphorylation of biotinylated PHAS-I with 32P-ATP; assay type: biochemical; conditions: for IC50: read-out: P38 alpha kinase IC50
T1 construct: GST (N, cleaved yes); made in house; host or cells: E. coli DH10B
T1 sequence (Q16539 whole entry): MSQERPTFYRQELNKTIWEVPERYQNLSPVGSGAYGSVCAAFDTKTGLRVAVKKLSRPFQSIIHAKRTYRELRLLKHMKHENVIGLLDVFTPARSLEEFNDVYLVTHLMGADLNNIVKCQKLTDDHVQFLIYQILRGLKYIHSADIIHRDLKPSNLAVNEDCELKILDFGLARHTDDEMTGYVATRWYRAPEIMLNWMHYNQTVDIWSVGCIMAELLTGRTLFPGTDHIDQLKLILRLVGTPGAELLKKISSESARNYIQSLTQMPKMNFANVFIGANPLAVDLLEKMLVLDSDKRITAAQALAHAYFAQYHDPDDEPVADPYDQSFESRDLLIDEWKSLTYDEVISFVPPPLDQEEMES

[3] = Table 6, mouse LPS, dose 30, oral gavage
[4] = in vitro P38-alpha kinase inhibition
[5] = 30 mpk oral gavage, −6 h before LPS challenge

IC50 [1]: 800 nM
SMILES: OCCn1cc(-c2ccnc(NCc3ccc(F)cc3)c2)c(-c2ccc(F)cc2)n1 [Example A-283, 3 (or 5)-(4-fluorophenyl)-4-[2-[[(4-fluorophenyl)methyl]amino]-4-pyridinyl]-1H-pyrazole-1-ethanol]
mLPS 8 h percent inhibition [2, 3]: −20%

IC50 (human p38 kinase alpha; [4]): 71 nM
SMILES: Cc1ccc(F)cc1S(=O)(=O)NC(C)c1[nH]nc(-c2ccc(F)cc2)c1-c1ccncc1 (centres unmarked) [Example B-0451]
inhibition in vivo at 30 mg/kg ([2]; Mus musculus, 30 mpk oral gavage, −5 h before LPS challenge, read-out: Mouse LPS Model % TNF inhib @ dose @ predose time): 42%

IC50 (human p38 kinase alpha; [4]): 830 nM
SMILES: CNC(=O)NC(C)c1[nH]nc(-c2ccc(F)cc2)c1-c1ccncc1 (centres unmarked) [Example B-0585]
inhibition in vivo at 30 mg/kg ([2]; Mus musculus, 30 mpk oral gavage, −6 h before LPS challenge, read-out: Mouse LPS Model % TNF inhib @ dose @ predose time): 50%

IC50 (human p38 kinase alpha; in vitro P38-alpha kinase): 31 nM
SMILES: COCC(=O)N1CCC(c2[nH]nc(-c3ccc(F)cc3)c2-c2ccncc2)CC1 [Example B-1368]
inhibition in vivo at 30 mg/kg ([2]; Mus musculus, 30 mpk oral gavage, predose time not printed ("@ -"), read-out: Mouse LPS Model % TNF inhib @ dose @ predose time): 44%

IC50 (human p38 kinase alpha; in vitro P38-alpha kinase): 9 nM
SMILES: CS(=O)(=O)N1CCC(c2[nH]nc(-c3ccc(F)cc3)c2-c2ccncc2)CC1 [Example B-1376]
Mouse LPS Model % TNF inhib @ dose @ predose time [2, 5]: 3.0% @ 30 mpk @ −6 H

IC50 [1]: 140 nM
SMILES: OCCn1cc(-c2ccnc(NCc3ccc(F)cc3)c2)c(-c2ccc(F)cc2)n1 [Example A-289, 3-(4-fluorophenyl)-4-[2-[[(4-fluorophenyl)methyl]amino]-4-pyridinyl]-1H-pyrazole-1-ethanol]
mLPS 8 h percent inhibition [2, 3]: 44%

SMILES: Fc1ccc(-c2n[nH]c(NCCN3CCOCC3)c2-c2ccncc2)cc1 [Example A-218, N-[5-(4-fluorophenyl)-4-(4-pyridinyl)-1H-pyrazol-3-yl]-4-morpholineethanamine]
mLPS 8 h percent inhibition [2, 3]: 18%

SMILES: CN(C)CCn1cc(-c2ccncc2)c(-c2ccc(F)cc2)n1 [Example A-261, 3-(4-fluorophenyl)-N,N-dimethyl-4-(4-pyridinyl)-1H-pyrazole-1-ethanamine]
mLPS 8 h percent inhibition [2, 3]: 48%

SMILES: Cn1cc(-c2ccnc(NCCO)c2)c(-c2ccc(F)cc2)n1 [Example A-281, 2-[[4-[3-(4-fluorophenyl)-1-methyl-1H-pyrazol-4-yl]-2-pyridinyl]amino]ethanol]
mLPS 8 h percent inhibition [2, 3]: 22%

SMILES: Cn1cc(-c2ccncc2)c(-c2cccc(F)c2)n1 [Example A-229, 4-[3-(3-fluorophenyl)-1-methyl-1H-pyrazol-4-yl]pyridine]
mLPS 8 h percent inhibition ([2]; Table 6, mouse LPS, dose not given, oral gavage): 76%

P38 alpha kinase % inhib @ conc. (uM) (human p38 kinase alpha; @ 1.0 uM): 66.0% @
SMILES: O=C(NCCCc1[nH]nc(-c2ccc(F)cc2)c1-c1ccncc1)c1ccccc1I [Example B-1159]
Mouse LPS Model % TNF inhib @ dose @ predose time [2, 5]: 60% @ 30 mpk @ −6 h

SMILES: OCCNc1cc(-c2c[nH]nc2-c2ccc(F)cc2)ccn1 [Example A-280]
mLPS 8 h percent inhibition [2, 3]: 15%

SMILES: Fc1ccc(-c2n[nH]c(NCCCN3CCOCC3)c2-c2ccncc2)cc1 [Example A-286, N-[5-(4-fluorophenyl)-4-(4-pyridinyl)-1H-pyrazol-3-yl]-4-morpholinepropanamine]
mLPS 8 h percent inhibition [2, 3]: 29%

SMILES: Cc1cccc(-c2nn(C)cc2-c2ccnc(C)c2)c1 [Example A-235, 2-methyl-4-[1-methyl-3 (or 5)-(3-methylphenyl)-1H-pyrazol-4-yl]pyridine]
inhibition in vivo at 30 mg/kg ([2]; Table 6, mouse LPS, 1 h before LPS, 30 mpk, oral gavage, read-out: mLPS 1 h, 30 mpk percent inhibition): 56%

SMILES: c1cc(-c2c[nH]nc2-c2ccc3c(c2)OCO3)ccn1 [Example A-228, 4-[3-(1,3-benzodioxol-5-yl)-1H-pyrazol-4-yl]pyridine]
mLPS 8 h percent inhibition [2, 3]: 32%

SMILES: Fc1ccc(-c2n[nH]cc2-c2ccnc3ccccc23)cc1 [Example A-291]
mLPS 8 h percent inhibition [2, 3]: 36%

IC50 [1]: 450 nM
SMILES: Fc1ccc(CNc2cc(-c3cn(CCN4CCOCC4)nc3-c3ccc(F)cc3)ccn2)cc1 [Example A-276, N-[(4-fluorophenyl)methyl]-4-[3(or 5)-(4-fluorophenyl)-1-[[2-(4-morpholinyl)ethyl]-1H-pyrazol-4-yl]-2-pyridinamine]
mLPS 8 h percent inhibition [2, 3]: −24%

SMILES: CN(C)CCCNc1[nH]nc(-c2ccc(F)cc2)c1-c1ccncc1 [Example A-287, N′-[5-(4-fluorophenyl)-4-(4-pyridinyl)-1H-pyrazol-3-yl]-N,N-dimethyl-1,3-propanediamine]
mLPS 8 h percent inhibition [2, 3]: −24%
